Data on four compounds can be found in paper PMC12169680, “Design and Mechanistic Analysis of a Potent Bivalent Inhibitor of Transthyretin Amyloid Fibrillogenesis” (Journal of Medicinal Chemistry, 2025).

As a reminder, the IC50 is the concentration needed to halve the response being measured. Read a high IC50 as weaker potency in that assay.

Data set [1] concerns the target T1, wild-type TTR in normal human plasma (Homo sapiens, UniProt P02766).
T1 construct: TTR in whole plasma, from individuals homozygous for wild-type TTR; from tissue; host or cells: whole human plasma from individuals homozygous for wild-type TTR
Description: Displacement of 125I-T4 from TTR in normal human plasma. In kind it is binding.

Data set [2] concerns the target T2, recombinant wild-type TTR (Homo sapiens, UniProt P02766).
T2 construct: Native TTR is a noncovalent homotetramer of β-sheet-rich 127-residue protomers; His6 (N); TEV cleavage site (N); made in house; host or cells: E. coli BL21 (DE3)
Description: Stopped flow kinetics of ligand binding by fluorescence emission. Particulars: for rate constant k of TTR intrinsic fluorescence quenching / very early change in TTR fluorescence during dead time: 1 μM TTR; for rate constant k of TTR intrinsic fluorescence quenching: 1 μM ligand, 37 °C, PBS pH 7.4, first second; for very early change in TTR fluorescence during dead time: dead time <5 ms, equimolar ligand. The method, then:
Interaction of ligands in the TTR thyroxine binding pockets induces quenching of intrinsic fluorescence emission.
Kinetics of binding within the first second of reaction was evaluated with an SFM 3000 stopped flow device coupled to a MOS500 spectrometer with a fluorescence detection system (Bio Logic, Claix, France) and a cell path length of 1.5 mm (dead-time <5 ms). Total fluorescence emission over 325 nm, using a cut off filter, was monitored after excitation at 280 nm at 37 °C and 1 μM recombinant wild-type TTR in the presence of 1 μM of ligand in PBS pH 7.4 at a final concentration of 0.9% DMSO. Kinetic data were acquired as the average of at least 3 experimental mixings and fitted using the following equation y(t)=q+Aexp(−kt) where y(t) is the observed fluorescence q the offset of the baseline. A and k are, respectively, amplitude and rate constant of the observed fluorescence change.

For data set [3], the target named is T3, V122I TTR (Homo sapiens, UniProt P02766, V142I).
T3 construct: 1-127; His6 (N); TEV cleavage site (N); made in house; host or cells: E. coli BL21 (DE3)
Description: Inhibition of mechano-enzymatic fibrillogenesis (ThT). In kind it is biochemical. The method, then: To test their potency as inhibitors of TTR fibril formation, the 15 ligands were evaluated for their ability to inhibit the mechano-enzymatic mechanism of fibrillogenesis of V122I TTR, which is one of the most common amyloidogenic variants, , causing a disease with severity intermediate between the wild-type and other rare, more aggressive types of amyloidosis. […] Biochemical activity of ligands together with their physicochemical properties (i.e., cLogD, TPSA) were taken into consideration and B26 was finally selected as the most promising lead for further studies (Figure A). […] Prototype mds84 was also included for comparison. […] Although higher molar ratios of the monovalent ligands did inhibit fibrillogenesis, this cannot be replicated in vivo because the negative cooperativity of TTR cannot be overcome at feasible drug dosage. ,
Recombinant V122I TTR at 0.5 mg/mL (9 μM) in PBS, pH 7.4 was preincubated (37 °C for 30 min) with an equimolar concentration of ligand (or DMSO alone) before adding trypsin (5 ng/μL). Protein fibrillogenesis was carried out in glass vials stirred at 1400 rpm (IKA magnetic stirrer), 37 °C and spectrophotometric turbidity at 400 nm was used to monitor fibril formation over time until it reached a plateau at 96 h.
Analysis of amyloid material harvested from each sample at the end of the fibrillogenesis was carried out using Thioflavin T (ThT) emission fluorescence and Congo red staining. For these analyses, samples were centrifuged 20 min at 11,600g and pellets were thoroughly rinsed with PBS to remove nonbound ligand, resuspended with 100 μL PBS, pH 7.4, containing 10 μM Thioflavin T (ThT) in Costar 96-well black-wall plates. Bottom fluorescence values (excitation 440 nm, emission 480 nm) were recorded using a BMG LABTECH FLUostar Omega plate reader. Each value was normalized to the ThT signal of the TTR sample without ligand.

In data set [4] the target is T3, V122I TTR. Kind of data set: Electrophoretic analysis of V122I TTR proteolysis before and after mechano-enzymatic aggregation. In kind it is biochemical. Particulars: SDS-PAGE, trypsin, 96 h aggregation. The method, then: Figure S2. Effect of B26 on proteolysis of V122I TTR. Homogenous SDS-12% PAGE under reducing conditions of 9 µM V122I TTR before (a) and after 96 h aggregation in the presence of 0 (b), 4.5 µM (c), 9 (d), 18 (e) and 36 µM (f) of B26 respectively in PBS pH 7.4 at 37°C. Aggregation was carried out under fluid agitation and addition of trypsin at an enzyme: substrate ratio of 1:200. LMW marker […]

The target of data set [5] is T4, TTR (Homo sapiens, UniProt P02766).
T4 construct: Native TTR is a noncovalent homotetramer of β-sheet-rich 127-residue protomers; His6 (N); TEV cleavage site (N); made in house; host or cells: E. coli BL21 (DE3)
Kind of data set: NMR saturation transfer difference (STD) experiments to estimate k off. The note with it: no STD signal observed by increasing the saturation time. In kind it is binding. The text has this: However, the prototype mds84 was unsuitable for drug development due to its large and highly hydrophobic structure. The bivalent compound B26 represents the evolution of such TTR ligands. Compared to the palindromic prototype, the molecule has reduced size and reduced lipophilicity as a consequence of the removal of one of the aryl rings from headgroup B; introduction of an oxygen in the six-atom linker; replacement of the benzoyl group in headgroup A with 4-carboxy pyridine. Despite these structural changes, the ligand retains the same pseudoirreversible binding of mds84. […] Therefore, the B26 ligand overcomes the pharmaceutical limitations of negative cooperativity and, at the same time, retains the biomolecular property of very strong inhibition of TTR fibrillogenesis by simultaneously occupying the two ligand binding sites. Each of them is able to accommodate two aryl rings, and the one that penetrates deeper into the cavity is anchored to the protein by two halogen substituents. We have designed a bivalent molecule in which one-half has the properties of a classical analogue of the thyroid hormone, and the second half, connected through a chemical linker, is represented by only one aryl ring with halogen substituents.

Data set [6] in a line: Rat pharmacokinetics. In kind it is in vivo. Particulars: data not shown.
The mark [7] stands for this setting: residual V122I TTR fibrillar aggregation with equimolar ligand, ThT emission normalized to protein without ligand, mean ± SD.
The mark [8] stands for this setting: supplementary CSV, residual V122I TTR aggregation, equimolar ligand.

Compound `O=C(O)c1ccccc1Nc1cc(Cl)c(OCCCCCCCOc2c(Cl)cc(Nc3ccccc3C(=O)O)cc2Cl)c(Cl)c1` [mds84, reference compound] showed an IC50 in data set [1] (ligand concentration reducing binding of 125I-thyroxine by wild-type TTR by 50% in normal human plasma, mean ± SD) of 19 ± 5.8 µM. In data set [2], the “rate constant k of TTR intrinsic fluorescence quenching” value (“rate constant k” for short) was determined as 4.4 ± 0.44 s^–1 and the “very early change in TTR fluorescence during dead time” value (“very early change” below) was 3%. Further, in data set [3] (setting [7]), the “Agg (%)” value amounted to 2.4 ± 0.30%. In data set [3] (setting [8]), the “Agg (%)” value is recorded as 2.4±0.30%.

Turning to `O=C(O)c1ccc2nc(-c3cc(Cl)cc(Cl)c3)oc2c1` [tafamidis, reference compound], in data set [2], the “rate constant k” value is reported as 49 ± 0.0016 s^–1 and the “very early change” value is “approximately 8%”. For the same compound, in data set [3] (9 μM V122I TTR, equimolar concentration, bivalent vs monovalent ligands), the “inhibition of V122I TTR amyloid formation at equimolar ligand/protein, in words” value is listed as “significantly lower inhibitory effect”.

As to `O=C(O)CCc1cc(Cl)c(OCCCOCCOc2c(Cl)cc(Nc3cnccc3C(=O)O)cc2Cl)c(Cl)c1` [B26, 3-[4-[2-[3-[4-(2-Carboxyethyl)-2,6-dichloro-phenoxy]-propoxy]-ethoxy]-3,5-dichloro-anilino]-Pyridine-4-Carboxylic Acid], the “binding to TTR in plasma, in words” value in data set [1] (normal human plasma) is given as “preservation of the properties”. Also, in data set [2], the “rate constant k” value is given as 22 ± 0.55 s^–1 and the “very early change” value is “approximately 8%”. Besides, in data set [2] (ratio of rate constants), the “quenching reaction / penetrance faster than mds84” value is reported as 5 fold and the “quenching reaction slower than tafamidis” value is reported as “at least 2 fold”. In data set [2] (within the first second, equimolar protein and ligand), the “reduction of TTR intrinsic fluorescence” value is given as around 30%. For the same compound, the “effect on proteolysis of V122I TTR” value in data set [4] is listed as “inhibited proteolysis”. The “antifibrillogenic activity, in words” value in data set [3] (V122I TTR, equimolar ligand) is given as “excellent antifibrillogenic activity”. The “Agg (%)” value in data set [3] (setting [7]) is given as 4.2 ± 1.9%. Further, in data set [3] (setting [8]), the “Agg (%)” value is recorded as 4.2±1.9%. The k off entry in data set [5] was “very slow”.

Regarding `O=C(O)CCc1cc(Cl)c(OCCCCCCCOc2c(Cl)cc(Nc3ccccc3C(=O)O)cc2Cl)c(Cl)c1` [compound 1], in data set [1] (capacity to displace 125I-T4 from TTR in human plasma), the IC50 is 2 ± 0.2 µM. Further, the “rat pharmacokinetics compared with mds84” value in data set [6] is reported as “much improved”.
